The source made the active and inactive calls.
How the values were obtained:
[1] = target: T1, Short transient receptor potential channel 4 (Mus musculus, UniProt Q9QUQ5); assay: mouse TRPC4 channel inhibitors, dose response, cell-based, HEK293 TRPC4/mu-opioid, Fluo-4 calcium (AID 434942); format: functional;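 note: potency of inhibitors blocking the TRPC4 calcium response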
T1 sequence (Q9QUQ5 whole entry): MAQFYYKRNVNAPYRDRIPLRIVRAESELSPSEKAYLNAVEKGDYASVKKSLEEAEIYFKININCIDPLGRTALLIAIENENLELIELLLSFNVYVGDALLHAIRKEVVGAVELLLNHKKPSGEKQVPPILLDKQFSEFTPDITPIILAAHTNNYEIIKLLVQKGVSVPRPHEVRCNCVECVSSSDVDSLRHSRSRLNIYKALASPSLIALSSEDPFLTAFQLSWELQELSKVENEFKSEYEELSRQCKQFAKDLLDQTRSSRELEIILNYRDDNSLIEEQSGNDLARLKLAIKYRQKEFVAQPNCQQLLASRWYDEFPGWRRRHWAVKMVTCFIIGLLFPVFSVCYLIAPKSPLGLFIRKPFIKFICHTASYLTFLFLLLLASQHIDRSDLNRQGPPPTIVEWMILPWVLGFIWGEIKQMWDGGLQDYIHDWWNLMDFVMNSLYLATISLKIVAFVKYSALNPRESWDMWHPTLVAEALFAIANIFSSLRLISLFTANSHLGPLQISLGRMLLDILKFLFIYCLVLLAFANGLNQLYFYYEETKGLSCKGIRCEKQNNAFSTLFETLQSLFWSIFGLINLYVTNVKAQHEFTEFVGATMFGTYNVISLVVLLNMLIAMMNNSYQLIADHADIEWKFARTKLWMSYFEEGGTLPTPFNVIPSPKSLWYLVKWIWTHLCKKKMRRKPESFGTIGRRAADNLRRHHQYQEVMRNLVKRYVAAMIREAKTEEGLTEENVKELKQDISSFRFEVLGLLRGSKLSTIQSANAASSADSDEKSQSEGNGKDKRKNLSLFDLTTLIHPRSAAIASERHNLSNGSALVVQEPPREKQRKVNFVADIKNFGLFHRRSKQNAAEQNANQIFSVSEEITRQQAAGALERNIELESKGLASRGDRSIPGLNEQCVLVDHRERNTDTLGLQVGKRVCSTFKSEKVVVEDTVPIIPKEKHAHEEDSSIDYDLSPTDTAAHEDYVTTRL

[2] = target: T2, Fatty acid synthase (Homo sapiens, UniProt P49327); assay: FAS thioesterase domain inhibitors, dose response, biochemical, kinetic fluorescence intensity (AID 624326); format: functional;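 note: rate of fluorescence rise from hydrolysis of a fluorogenic O-methyl fluorescein ester substrate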
T2 sequence (P49327 whole entry, the tested form may be a part): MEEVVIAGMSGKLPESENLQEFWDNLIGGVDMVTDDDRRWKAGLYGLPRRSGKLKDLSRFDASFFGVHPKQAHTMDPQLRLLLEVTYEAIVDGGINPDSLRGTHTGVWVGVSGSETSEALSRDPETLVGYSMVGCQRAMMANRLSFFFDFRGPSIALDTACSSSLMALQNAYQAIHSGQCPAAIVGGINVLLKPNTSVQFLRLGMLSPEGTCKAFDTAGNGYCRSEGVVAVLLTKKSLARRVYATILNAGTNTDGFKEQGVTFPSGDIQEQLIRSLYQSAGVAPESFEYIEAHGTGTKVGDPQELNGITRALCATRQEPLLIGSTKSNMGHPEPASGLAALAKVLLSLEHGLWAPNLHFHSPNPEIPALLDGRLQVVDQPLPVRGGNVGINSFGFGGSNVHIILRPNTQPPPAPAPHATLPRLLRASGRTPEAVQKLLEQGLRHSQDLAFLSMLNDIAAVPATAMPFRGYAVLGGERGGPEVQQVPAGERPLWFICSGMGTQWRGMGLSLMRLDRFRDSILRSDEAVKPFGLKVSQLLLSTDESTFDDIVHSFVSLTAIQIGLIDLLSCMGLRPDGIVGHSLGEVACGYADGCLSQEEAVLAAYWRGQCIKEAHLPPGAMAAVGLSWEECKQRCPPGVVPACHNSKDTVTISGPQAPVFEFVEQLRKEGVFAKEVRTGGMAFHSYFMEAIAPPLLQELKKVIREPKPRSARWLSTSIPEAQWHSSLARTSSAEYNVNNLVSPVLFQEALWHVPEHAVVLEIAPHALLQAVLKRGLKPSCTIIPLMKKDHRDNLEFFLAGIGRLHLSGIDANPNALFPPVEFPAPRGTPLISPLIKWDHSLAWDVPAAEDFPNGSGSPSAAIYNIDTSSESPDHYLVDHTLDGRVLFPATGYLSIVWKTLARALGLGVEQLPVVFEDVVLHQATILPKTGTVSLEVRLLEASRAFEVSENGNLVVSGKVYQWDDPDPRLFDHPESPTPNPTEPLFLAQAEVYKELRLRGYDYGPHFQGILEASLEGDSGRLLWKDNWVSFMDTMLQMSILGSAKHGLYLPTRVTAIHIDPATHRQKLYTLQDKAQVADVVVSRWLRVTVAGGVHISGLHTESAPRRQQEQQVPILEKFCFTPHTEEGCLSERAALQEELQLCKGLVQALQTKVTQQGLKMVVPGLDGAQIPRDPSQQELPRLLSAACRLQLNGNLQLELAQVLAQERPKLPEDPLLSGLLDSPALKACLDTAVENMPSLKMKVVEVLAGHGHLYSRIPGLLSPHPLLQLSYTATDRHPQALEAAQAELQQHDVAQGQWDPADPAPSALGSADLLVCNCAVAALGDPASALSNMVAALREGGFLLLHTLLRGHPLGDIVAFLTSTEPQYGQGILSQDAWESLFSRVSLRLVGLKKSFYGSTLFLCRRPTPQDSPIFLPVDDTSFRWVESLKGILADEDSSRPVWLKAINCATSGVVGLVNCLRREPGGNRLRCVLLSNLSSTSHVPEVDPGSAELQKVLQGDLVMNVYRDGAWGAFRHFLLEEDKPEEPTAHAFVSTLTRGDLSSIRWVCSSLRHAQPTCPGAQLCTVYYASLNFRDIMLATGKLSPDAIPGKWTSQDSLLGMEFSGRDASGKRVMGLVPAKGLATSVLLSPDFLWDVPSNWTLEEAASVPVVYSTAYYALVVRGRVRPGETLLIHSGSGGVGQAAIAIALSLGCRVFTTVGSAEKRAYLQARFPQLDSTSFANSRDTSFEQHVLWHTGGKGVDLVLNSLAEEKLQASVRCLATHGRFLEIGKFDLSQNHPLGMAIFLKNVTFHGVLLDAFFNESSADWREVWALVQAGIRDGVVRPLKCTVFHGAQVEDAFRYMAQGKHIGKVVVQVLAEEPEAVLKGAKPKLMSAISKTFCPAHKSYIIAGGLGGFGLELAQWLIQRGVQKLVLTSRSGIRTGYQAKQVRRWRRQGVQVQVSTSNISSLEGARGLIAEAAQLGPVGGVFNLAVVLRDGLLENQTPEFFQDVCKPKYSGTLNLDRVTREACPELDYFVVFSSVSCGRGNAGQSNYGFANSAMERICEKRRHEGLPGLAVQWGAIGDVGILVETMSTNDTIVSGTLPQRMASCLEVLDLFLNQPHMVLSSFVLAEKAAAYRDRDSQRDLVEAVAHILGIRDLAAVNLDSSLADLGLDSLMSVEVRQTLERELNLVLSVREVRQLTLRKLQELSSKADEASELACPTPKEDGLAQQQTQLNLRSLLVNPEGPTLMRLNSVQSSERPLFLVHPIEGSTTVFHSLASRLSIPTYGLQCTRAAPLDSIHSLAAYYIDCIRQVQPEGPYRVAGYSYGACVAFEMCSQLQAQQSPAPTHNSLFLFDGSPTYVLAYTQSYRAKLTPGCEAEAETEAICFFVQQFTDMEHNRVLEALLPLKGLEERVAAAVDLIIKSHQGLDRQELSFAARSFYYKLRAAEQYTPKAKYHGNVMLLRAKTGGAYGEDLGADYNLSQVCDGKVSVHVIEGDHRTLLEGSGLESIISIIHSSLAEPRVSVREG

[3] = target: T2, Fatty acid synthase; assay: FAS thioesterase domain inhibitors, dose response, biochemical, endpoint fluorescence intensity, uHTS hits (AID 624327); format: functional;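 note: fluorescence from hydrolysis of an O-methyl fluorescein acyl ester substrate by the enzyme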
[4] = target: Voltage-dependent T-type calcium channel subunit alpha-1H (Homo sapiens, UniProt O95180); format: functional;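 note: channel activity triggered by adding a high calcium stimulation buffer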
Chain of Voltage-dependent T-type calcium channel subunit alpha-1H (O95180 whole entry): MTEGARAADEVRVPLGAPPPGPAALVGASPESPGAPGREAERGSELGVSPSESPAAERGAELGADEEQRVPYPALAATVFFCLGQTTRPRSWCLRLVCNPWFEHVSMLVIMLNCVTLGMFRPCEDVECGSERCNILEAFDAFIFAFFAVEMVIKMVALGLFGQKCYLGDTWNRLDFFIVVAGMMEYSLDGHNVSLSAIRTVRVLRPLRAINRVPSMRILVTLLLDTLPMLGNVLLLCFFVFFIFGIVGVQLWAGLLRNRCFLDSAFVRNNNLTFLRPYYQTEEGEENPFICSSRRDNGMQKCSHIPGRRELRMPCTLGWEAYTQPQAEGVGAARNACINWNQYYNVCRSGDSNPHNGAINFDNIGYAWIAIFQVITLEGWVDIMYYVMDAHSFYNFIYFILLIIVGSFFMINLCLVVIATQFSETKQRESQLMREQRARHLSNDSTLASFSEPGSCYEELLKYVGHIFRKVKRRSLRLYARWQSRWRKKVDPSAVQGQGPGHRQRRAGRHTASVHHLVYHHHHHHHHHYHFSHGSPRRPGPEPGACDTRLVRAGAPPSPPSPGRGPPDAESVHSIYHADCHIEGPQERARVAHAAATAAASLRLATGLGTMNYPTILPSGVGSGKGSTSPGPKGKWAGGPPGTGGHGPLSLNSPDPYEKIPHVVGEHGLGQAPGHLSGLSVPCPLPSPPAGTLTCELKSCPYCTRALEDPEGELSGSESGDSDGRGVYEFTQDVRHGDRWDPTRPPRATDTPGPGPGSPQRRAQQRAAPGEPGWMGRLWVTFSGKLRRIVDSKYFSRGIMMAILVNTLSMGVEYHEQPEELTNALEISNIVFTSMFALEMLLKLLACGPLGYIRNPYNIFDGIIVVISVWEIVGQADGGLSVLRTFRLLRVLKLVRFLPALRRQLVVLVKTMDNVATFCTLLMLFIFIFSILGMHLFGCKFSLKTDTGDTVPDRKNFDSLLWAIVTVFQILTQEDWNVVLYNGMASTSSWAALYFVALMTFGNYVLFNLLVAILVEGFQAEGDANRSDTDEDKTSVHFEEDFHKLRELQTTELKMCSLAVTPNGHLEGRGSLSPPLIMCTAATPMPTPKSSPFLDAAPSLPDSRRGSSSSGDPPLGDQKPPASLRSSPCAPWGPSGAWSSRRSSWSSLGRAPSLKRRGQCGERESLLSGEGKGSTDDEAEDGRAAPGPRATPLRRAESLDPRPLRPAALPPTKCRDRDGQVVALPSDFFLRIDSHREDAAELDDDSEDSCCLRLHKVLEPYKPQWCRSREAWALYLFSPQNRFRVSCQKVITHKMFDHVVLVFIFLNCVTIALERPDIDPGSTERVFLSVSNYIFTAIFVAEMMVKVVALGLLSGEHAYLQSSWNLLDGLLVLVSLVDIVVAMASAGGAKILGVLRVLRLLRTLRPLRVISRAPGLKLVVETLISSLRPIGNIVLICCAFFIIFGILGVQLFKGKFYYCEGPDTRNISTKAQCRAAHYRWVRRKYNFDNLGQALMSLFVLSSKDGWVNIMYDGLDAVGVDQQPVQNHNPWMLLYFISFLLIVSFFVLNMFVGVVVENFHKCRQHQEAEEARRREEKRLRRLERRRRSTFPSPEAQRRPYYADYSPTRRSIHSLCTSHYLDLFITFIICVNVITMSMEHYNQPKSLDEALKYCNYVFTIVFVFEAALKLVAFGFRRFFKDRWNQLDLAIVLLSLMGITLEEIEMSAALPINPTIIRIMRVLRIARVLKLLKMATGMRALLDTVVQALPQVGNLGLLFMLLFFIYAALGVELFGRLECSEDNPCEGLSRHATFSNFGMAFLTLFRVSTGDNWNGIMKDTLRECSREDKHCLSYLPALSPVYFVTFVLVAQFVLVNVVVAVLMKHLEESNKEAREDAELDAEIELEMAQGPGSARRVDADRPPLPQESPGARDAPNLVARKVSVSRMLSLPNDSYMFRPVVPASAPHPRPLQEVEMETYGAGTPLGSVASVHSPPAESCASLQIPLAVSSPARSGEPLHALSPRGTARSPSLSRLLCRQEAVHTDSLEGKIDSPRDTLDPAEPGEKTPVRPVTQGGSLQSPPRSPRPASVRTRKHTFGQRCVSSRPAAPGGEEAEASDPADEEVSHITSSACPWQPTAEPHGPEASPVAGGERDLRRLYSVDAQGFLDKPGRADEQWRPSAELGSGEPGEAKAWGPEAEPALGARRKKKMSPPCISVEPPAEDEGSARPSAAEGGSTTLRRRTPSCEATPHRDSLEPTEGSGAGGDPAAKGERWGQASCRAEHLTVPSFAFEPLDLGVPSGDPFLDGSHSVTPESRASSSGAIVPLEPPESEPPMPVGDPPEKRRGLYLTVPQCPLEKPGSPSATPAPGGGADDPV

[5] = target: T3, Rac GTPase-activating protein 1 (Homo sapiens, UniProt Q9H0H5); assay: MgcRacGAP GTPase-activating activity inhibitors, confirmation, biochemical, ADP Hunter fluorescence, primary and confirmatory (AID 624330); format: functional
T3 sequence (Q9H0H5 whole entry): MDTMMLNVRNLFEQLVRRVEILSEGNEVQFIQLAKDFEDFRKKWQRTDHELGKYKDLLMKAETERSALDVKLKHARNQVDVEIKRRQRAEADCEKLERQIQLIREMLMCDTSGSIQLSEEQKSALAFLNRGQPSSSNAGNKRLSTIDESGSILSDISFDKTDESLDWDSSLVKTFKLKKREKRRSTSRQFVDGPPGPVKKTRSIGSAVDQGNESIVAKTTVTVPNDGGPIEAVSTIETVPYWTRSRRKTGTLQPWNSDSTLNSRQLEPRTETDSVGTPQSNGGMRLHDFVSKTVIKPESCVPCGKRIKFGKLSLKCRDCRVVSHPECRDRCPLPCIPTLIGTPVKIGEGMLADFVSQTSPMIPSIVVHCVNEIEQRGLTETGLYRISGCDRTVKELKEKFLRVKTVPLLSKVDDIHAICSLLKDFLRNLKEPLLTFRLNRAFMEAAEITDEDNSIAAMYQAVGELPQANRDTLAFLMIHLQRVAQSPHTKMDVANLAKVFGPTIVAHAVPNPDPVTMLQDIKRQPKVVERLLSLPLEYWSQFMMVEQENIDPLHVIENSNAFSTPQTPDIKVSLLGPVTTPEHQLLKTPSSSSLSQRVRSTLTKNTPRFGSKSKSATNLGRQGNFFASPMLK

[6] = target: T1, Short transient receptor potential channel 4; assay: mouse TRPC4 channel activators, dose response, cell-based, HEK293 TRPC4/mu-opioid, Fluo-4 calcium (AID 434937); format: functional
[7] = target: T4, DNA repair protein RAD52 homolog (Homo sapiens, UniProt P43351); format: functional, biochemical
T4 sequence (P43351 whole entry): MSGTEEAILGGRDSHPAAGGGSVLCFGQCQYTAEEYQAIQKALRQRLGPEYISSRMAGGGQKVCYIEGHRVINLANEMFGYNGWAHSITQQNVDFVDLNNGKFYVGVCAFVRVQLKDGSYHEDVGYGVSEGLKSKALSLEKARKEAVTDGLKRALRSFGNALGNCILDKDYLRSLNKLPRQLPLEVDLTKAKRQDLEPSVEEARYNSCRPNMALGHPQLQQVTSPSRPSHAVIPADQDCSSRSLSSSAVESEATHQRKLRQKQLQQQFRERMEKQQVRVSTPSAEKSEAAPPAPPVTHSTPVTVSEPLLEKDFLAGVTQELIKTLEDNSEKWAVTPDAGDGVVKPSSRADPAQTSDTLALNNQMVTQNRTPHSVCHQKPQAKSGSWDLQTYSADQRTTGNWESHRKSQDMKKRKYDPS

[8] = target: T5, DNA repair and recombination protein RAD54-like (Homo sapiens, UniProt Q92698); assay: inhibitors of human RAD54 branch migration, confirmation, biochemical, fluorescence, cherry-picked samples, dose series (AID 651657); format: functional
T5 sequence (Q92698 whole entry): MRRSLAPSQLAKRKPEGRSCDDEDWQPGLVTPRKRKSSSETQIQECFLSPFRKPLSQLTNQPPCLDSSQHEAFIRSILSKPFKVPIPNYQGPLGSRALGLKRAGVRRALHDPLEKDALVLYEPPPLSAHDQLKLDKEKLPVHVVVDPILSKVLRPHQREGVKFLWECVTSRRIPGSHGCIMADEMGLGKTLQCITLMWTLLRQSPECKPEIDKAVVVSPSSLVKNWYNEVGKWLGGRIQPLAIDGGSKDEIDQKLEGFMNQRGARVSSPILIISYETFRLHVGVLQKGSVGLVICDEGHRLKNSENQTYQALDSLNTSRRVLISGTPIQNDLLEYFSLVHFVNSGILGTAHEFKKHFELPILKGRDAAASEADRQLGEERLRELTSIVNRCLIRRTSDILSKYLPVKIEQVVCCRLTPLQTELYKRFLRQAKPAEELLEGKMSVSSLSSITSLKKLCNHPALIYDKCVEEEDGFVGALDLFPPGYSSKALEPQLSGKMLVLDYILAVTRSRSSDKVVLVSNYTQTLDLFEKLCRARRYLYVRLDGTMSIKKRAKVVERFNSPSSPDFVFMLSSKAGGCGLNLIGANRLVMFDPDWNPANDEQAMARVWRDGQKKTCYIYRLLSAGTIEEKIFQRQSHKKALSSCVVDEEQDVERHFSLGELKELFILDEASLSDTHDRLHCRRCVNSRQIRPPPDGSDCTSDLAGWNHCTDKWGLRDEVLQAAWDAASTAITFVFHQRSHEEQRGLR

[9] = target: T6, Corticotropin-releasing factor receptor 2/Corticotropin-releasing factor-binding protein (Homo sapiens, UniProt P24387+Q13324); assay: activators of CRF receptor 2 with binding protein – uHTS hits, confirmation (AID 602473); format: functional; details: read-out: EC50_Mean
T6 sequence (Q13324 whole entry): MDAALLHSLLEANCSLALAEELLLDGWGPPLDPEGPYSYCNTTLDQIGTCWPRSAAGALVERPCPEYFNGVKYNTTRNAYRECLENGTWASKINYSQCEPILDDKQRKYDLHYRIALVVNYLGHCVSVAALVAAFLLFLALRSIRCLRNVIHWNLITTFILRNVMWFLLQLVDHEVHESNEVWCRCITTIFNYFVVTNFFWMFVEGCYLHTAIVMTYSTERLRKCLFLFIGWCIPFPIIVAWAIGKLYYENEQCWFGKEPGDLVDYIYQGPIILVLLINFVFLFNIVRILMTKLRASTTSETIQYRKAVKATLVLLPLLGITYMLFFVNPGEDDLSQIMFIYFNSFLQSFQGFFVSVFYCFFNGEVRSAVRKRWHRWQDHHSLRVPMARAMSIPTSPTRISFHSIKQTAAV
T6 sequence (P24387 whole entry): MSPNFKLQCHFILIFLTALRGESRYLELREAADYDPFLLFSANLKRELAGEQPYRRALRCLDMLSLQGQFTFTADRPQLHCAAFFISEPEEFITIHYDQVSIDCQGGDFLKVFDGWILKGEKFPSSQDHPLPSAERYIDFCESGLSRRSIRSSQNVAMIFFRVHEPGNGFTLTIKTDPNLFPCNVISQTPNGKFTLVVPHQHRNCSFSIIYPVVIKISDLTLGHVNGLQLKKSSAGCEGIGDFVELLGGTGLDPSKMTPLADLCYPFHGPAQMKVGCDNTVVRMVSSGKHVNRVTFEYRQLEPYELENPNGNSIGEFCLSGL

[10] = target: Cytochrome P450 2C9 (Homo sapiens, UniProt P11712)
[11] = target: Cytochrome P450 2C19 (Homo sapiens, UniProt P33261); assay: Cytochrome panel assay with activity outcomes. Panel member name: p450-cyp2c19 Compounds with AC50 equal or less than 10 uM are considered active; format: functional; details: read-out: AC50
[12] = cytotoxicity toward NIH3T3 fibroblasts, dose response, counter-screen, cell-based, ATP luminescence, mouse fibroblasts (AID 2010); format: functional;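 note: cells exposed to compound for about 90 hours before reading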
[13] = inhibitors of intracellular T. cruzi replication, confirmation, NIH3T3 host cells, beta-gal luminescence (AID 2044); format: functional, cell-based;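 note: intracellular parasites grown in NIH/3T3 mouse fibroblasts as host cells; luminescent beta-galactosidase reporter signal from transgenic T. cruzi replicating inside host cells; inhibitors lower the luminescence signal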
[14] = system: Vero; assay: cells; format: functional; details: Chlorocebus sabaeus

O=C(NC1CCCCC1)N1CCN(C(c2ccccc2)c2ccccc2)CC1
EC50 [1]: 1.5 µM (active)

COc1ccc(C(=O)NC(C)CCc2ccccc2)cc1[N+](=O)[O-] (centres undefined)
IC50 [2]: 9.58 µM (active) | IC50 [3]: 13.4 µM (active)

CCCN(c1nc(C)cc(OC)n1)S(=O)(=O)c1ccccc1
EC50 [1]: 2.11 µM (active)

CCCCN(C)C(=O)C1CCN(Cc2ccc(OCc3ccccc3)cc2)CC1
EC50 [4]: 7.3 µM (active) | IC50 [5]: 204 µM (active)

COCCn1nnnc1C(c1cccs1)N1CCN(c2cccc(C(F)(F)F)c2)CC1 (centres undefined)
EC50 [4]: 97.8 µM (active)

CCn1c(N2CCN(C(S)=NCCc3ccccc3)CC2)nc2ccccc21
EC50 [6]: 0.376 µM (active)

CCCN1CCN(C(S)=Nc2ccc3nc(N4CCN(CC)CC4)cc(C)c3c2)CC1
AC50 [7]: 15.3 µM (active) | AC50 [8]: 82.8 µM (active)

CCC(SC1=N/C(=C/c2ccccc2OC)C(=O)N1c1ccccc1)C(=O)Nc1cc(C)on1 (centres undefined)
EC50 [4]: 4.23 µM (active)

COc1ccc(/C=C(/NC(=O)c2ccc([N+](=O)[O-])cc2)C(=O)NCCCN(C)C)cc1
IC50 [2]: 3.13 µM (active) | IC50 [3]: 5.03 µM (active)

O=C1c2ccccc2S(=O)(=O)c2cc(C(=O)N(c3ccccn3)c3ccccn3)ccc21
EC50 [9]: 4.15 µM (active) | EC50 [6]: 1.88 µM (active)

COC(=O)[C@@]1(Cc2ccc(F)cc2)[C@H]2c3cc(C(=O)N(C)C)n(CCc4ccccn4)c3C[C@H]2CN1C(=O)c1ccccc1
AC50 [10]: 10 µM (inconclusive) | EC50 [6]: 5.96 µM (active) | AC50 [11]: 39.8 µM (inconclusive)

CN(C)CCN(C(=O)CN1C(=O)c2ccccc2C1=O)c1nc2cc3c(cc2s1)OCO3
AC50 [7]: 23.9 µM (active) | AC50 [8]: 41.5 µM (active)

Cc1ccccc1Cn1nc(C)c(NC(=O)c2noc3c2CCc2ccccc2-3)c1C
EC50 [4]: 1.92 µM (active)

CN(C)CCCN(C(=O)c1ccc(C(=O)c2ccccc2)cc1)c1nc2ccc(F)cc2s1
EC50 [12]: > 60 µM (not active) | EC50 [13]: 0.104 µM (active) | EC50 [6]: 5.96 µM (active)

Cc1c([N+](=O)[O-])cc(C(=O)Nc2ccc(Cc3ccncc3)cc2)cc1[N+](=O)[O-]
EC50 [12]: > 60 µM (not active) | EC50 [13]: 0.799 µM (active) | IC50 [2]: 8.08 µM (active) | IC50 [3]: 7.27 µM (active)

CCOc1ccccc1CN1CCNC(=O)C1CC(=O)NCCc1ccccn1 (centres undefined)
EC50 [6]: 5.96 µM (active)

COc1ccc(-c2noc(CSc3nnc(Cc4ccccc4)n3-c3cccc(C)c3)n2)cc1OC
EC50 [4]: 4.35 µM (active)

Cc1nn(Cc2ccc(Cl)c(Cl)c2)c(C)c1NC(=O)c1cn(-c2ccccc2)nc1-c1ccccc1
EC50 [12]: > 60 µM (not active) | EC50 [4]: 5.29 µM (active) | EC50 [13]: 1.99 µM (active)

COc1ccc2cc3cc(C(=O)NCCCN4CCC(C)CC4)oc3nc2c1
AC50 [8]: 29.2 µM (active)

COc1ccc(C(CNC(=O)Cc2cccs2)N(C)C)cc1 (centres undefined)
EC50 [6]: 0.237 µM (active)

CCN(CC)CC(O)c1ccc2ccc3ccc(O)cc3c2c1 (centres undefined)
CC50 [14]: > 25 µM (active) | AC50 [7]: 7.92 µM (active) | AC50 [8]: 23.3 µM (active)

CCOc1ccc(NC(=O)c2cc([N+](=O)[O-])ccc2N2CCOCC2)cc1
IC50 [2]: 13.7 µM (active) | IC50 [3]: 13.4 µM (active)

COc1ccc2[nH]c3c(c2c1)CCN1C(=O)C(CC(=O)NCc2ccco2)C[C@H](C(=O)N2CCOCC2)[C@@]31CCC1CCCC1 (some centres undefined)
IC50 [2]: 4.73 µM (active) | IC50 [3]: 5.98 µM (active)

COc1ccc(Cl)cc1-c1cc(C(=O)NCc2cccc(Cl)c2)[nH]n1
IC50 [2]: 5.46 µM (active) | IC50 [3]: 12.4 µM (active)
